melting point [°C]	Compound
202 to 204	CCCc1c(SCCCOc2ccc3c(=O)cc(C(=O)O)oc3c2CCC)ccc(C(C)=O)c1N
63	Cc1cc(Cc2ccccc2)c(NCc2ccccn2)c(=O)n1CC(=O)O
163 to 164	CCn1ncc2c(NCCc3ccccc3)c3ccc(OC)cc3nc21
232	O=C(Nc1ncc(C(F)(F)F)o1)C1c2cc(F)ccc2Oc2ccc(F)cc21
328	O=C(NC1(C(=O)O)Cc2ccc(Br)cc2C1)c1cn2cc(-c3ccc(Cl)cc3)ccc2n1 (configuration not stated)
299 to 300	Cc1n[nH]c2c1nc(-c1ccccc1)c1cc(Br)ccc12
85.2 to 86.1	CC(C)=CCCC(C)=CCOc1ccc(C(=O)NCCc2ccncc2)cc1
137 to 138	CCCc1c(OCC(O)COc2ccc3c(=O)cc(CCC(=O)OCC)oc3c2CCC)ccc(C(C)=O)c1O (configuration not stated)
230 to 240	O=C(Nc1ccc(C(=O)N2Cc3cccn3-c3ccccc32)cc1)c1cccc(Cl)c1Cl
140 to 142	COc1ccc(-c2ocnc2-c2cc(OC)c(F)c(OC)c2)cc1N
97 to 100	CCOC(=O)COc1ccc(SCCc2cccc3sc(-c4ccc(C(F)(F)F)cc4)nc23)cc1C
121	O=S(CCCCCCOc1ccc(C2=C(c3ccccc3)CCCc3cc(O)ccc32)cc1)CCCC(F)(F)C(F)(F)F (configuration not stated)
158 to 159	COc1ccc(-c2c3ccc(OC)cc3cc3sc4ccccc4c23)cc1
105	C#CCN1CCCc2ccc(OC(=O)Nc3ccccc3Br)cc21
118 to 120	CNC(=O)NS(=O)(=O)c1cc(CCNC(=O)c2cc(Cl)ccc2OC)ccc1-c1ccco1
288 to 290	O=C(O)c1oc(=O)c2ncccc2c1-c1ccccc1
187	CCOC(=O)c1ccccc1NC(=O)CN1C(=O)c2ccccc2C1=O
168	Cc1cc(=O)c(Oc2ccccc2C)c(-c2ccc(S(C)(=O)=O)cc2)o1
230 to 231	O=c1c(Cl)c2sc3ccccc3nc-2c2ccccc12
101 to 102	Cc1ccc(OCCCCCOc2ccc3ccc(=O)oc3c2)cn1
171 to 173	Cc1ccc(-c2cn3cc(-c4cccc(CO)c4)ccc3n2)cc1

melting point [°C]	Compound
69 to 72	CCc1cc(-c2ccc(C(C)=O)cc2)ccc1OC
165 to 168	Cc1ccc(-c2ccc(S(C)(=O)=O)cc2)n1-c1ccc(-c2ccoc2)c(Cl)c1
184 to 185	CCCOc1ccc(CCC(=O)N2CCN(C)CC2)cc1-c1nc2c(C)cccc2c(=O)[nH]1
165 to 167	COc1cc(C(=O)N2Cc3ccc(C(=O)NCc4ccccc4C(F)(F)F)n3Cc3ccccc32)ccc1-c1ccccc1C
144 to 145	BrCc1ccc(-c2cnn(-c3ccc(CBr)cc3)n2)cc1
115 to 117	CCc1onc(-c2ccccc2)c1C(=O)NCCCN1CCN(c2ccc(F)cc2OCC(F)(F)F)CC1
100	Nc1ccc(C(=O)OCCOC(=O)C[C@@H](C(=O)O)n2c3ccccc3c3ccccc32)cc1
159 to 161	CC(=O)c1ccc(S(=O)(=O)n2c(CCC(=O)O)cc3cc(Cl)ccc32)cc1
202 to 203	COCC1(C)CCOc2ccc(C#Cc3ccc(C(=O)O)cc3)cc21 (configuration not stated)
128 to 129	CC(=O)c1ccc2c(c1)Cc1cccc(C(C)=O)c1-2
215 to 216	Oc1ccc(-c2cn(-c3ccc(C(F)(F)F)cc3F)nn2)cc1
115 to 117	COc1cc2ccc(CC(=O)O)cc2cc1OC
234 to 238	Cc1ccc(-c2[nH]c(C(F)(F)F)nc2-c2ccc(S(C)(=O)=O)cc2)cc1
255 to 257	COc1ccc2oc3ccc(I)cc3c2c1C(=O)Nc1ccncc1
126 to 128	CSc1ccc2cc(Cc3ccccc3)cc(CCNC(C)=O)c2c1
125 to 126	Clc1cccc(-c2ncoc2-c2ccncc2)c1
99.5 to 101	O=C(Nc1ccc(-n2nccn2)c(F)c1)OCc1ccccc1
165 to 166	COc1ccc(-c2cc3ccccc3[nH]2)cc1NCc1ccc(O)c([N+](=O)[O-])c1
250 to 252	O=C(O)Cc1sc2nc3ncccc3n2c1-c1ccc(Cl)cc1
182 to 184	CCOCc1cc(OC)c(-c2ccc(C[C@H](NC(=O)c3c(F)cccc3Cl)C(=O)O)cc2)c(OC)c1
184	Cc1ccc(C2CCN(CCCCNC(=O)c3ccc(-c4ccc(C#N)cc4)cc3)CC2)c(O)c1

Second part, the compound before the results:

Compound	melting point [°C]
COc1cc(N2CCC(N3CCN(C)CC3)CC2)ccc1Nc1ncc2ccc(Br)n2n1	171 to 173
O=C1N=c2ccc(OCCN3CC=C(Cc4ccccc4)CC3)cc2=N1	202 to 203
CCCCCCCCCCCCCCCCN(CCCC)CCCCCCO	58 to 59
O=C1CCC(N2Cc3c(OCc4ccc(CNC5CCCCC5)cc4)cccc3C2=O)C(=O)N1 (configuration not stated)	175 to 177
CCn1cc(C(=O)O)c(=O)c2cc(F)c(N3CCN(S(=O)(=O)c4ccc(F)cc4)CC3)c(F)c21	243 to 244
CC(=O)Nc1ccc(C2=NNC(=O)CC2)cc1[N+](=O)[O-]	223
CC1=NN=C(c2ccc([N+](=O)[O-])cc2)c2cc(Br)ccc2C1	200 to 205
O=C1NCCc2c1c1ccccc1n2Cc1ccccc1	209 to 212
CCOC(=O)C1=C(C)NC(C)=C(C(=O)OC)C1c1cccc(N)c1 (single isomer, unassigned; (-))	173 to 175
CCCCc1c(C(=O)c2ccc(O)cc2)c2cc([N+](=O)[O-])ccc2n1C	198
CCCN1CC=C(c2c[nH]c3ccc(OC)cc23)CC1	164
COc1ccc2cc([C@H](C)C(=O)OC[C@@H]3NC(=O)[C@@H](C(C)(C)S)NC3=O)ccc2c1	> 180
CS(=O)(=O)c1ccc(-c2cnn(Cc3c(F)c(F)c(F)c(F)c3F)c(=O)c2-c2ccc(F)cc2)cc1	115 to 116
N#Cc1cnn2c1N(C(=O)CCl)CC=C2c1cccc(C(F)(F)F)c1	179 to 181
Cc1nn(C(=O)NC(C)(C)CCc2ccccc2Cl)c(=O)n1N	102
C[Si](C)(C)C#CCCCn1ncc(C#N)c1N	125 to 127
O=S(=O)(NCCN1CC(c2ccccc2)C(c2ccc(Cl)cc2)=N1)c1cccc(C(F)(F)F)c1 (configuration not stated)	94 to 96
CCn1c(C)c(C)cc(C(=O)O)c1=O	164 to 165
C=CCNCC(O)COc1cccc2c1CC(=O)N2 (configuration not stated)	124 to 127
CCCC12C=CC=CC1C(=O)N(c1nc(C#N)c(C#N)[nH]1)C2=O (configuration not stated)	134 to 135
Clc1ccccc1-c1n[nH]cc1Br	80
C[C@H](CSC(=O)c1ccc(Cl)c(S(N)(=O)=O)c1)C(=O)O	152 to 153
Cc1ccc(-c2nc(Cl)cc(N3CCN(C)CC3)n2)cc1	93 to 95
Fc1ccc(CN(C(=S)Nc2ccccc2)C2CCCC2)cc1	135
Cc1c(C(F)(F)F)noc1NS(=O)(=O)c1ccccc1	99.5 to 100
CCOC(=O)n1c(=S)[nH]c2ccc(Br)cc2c1=O	214
CS(=O)(=O)c1cc(C(=O)O)cc(Cl)c1Nc1ccccc1	187 to 189
Oc1nnc(-c2ccc(CN3CCCCCC3)s2)o1	117 to 119

Compound	melting point [°C]
CN1CC(=O)OC2(CCN(CC=CC(=O)Nc3cc4c(Nc5ccc(F)c(Cl)c5)ncnc4cc3OCC3CC3)CC2)C1	125 to 130
CCCCCCCCn1c(C)cc2ccccc21	121 to 123
CN1CC(NC(=S)NC(=O)c2ccccc2)CC2c3cccc4[nH]cc(c34)CC21 (configuration not stated)	224 to 225
NCCCCCc1nc2ccccc2[nH]1	101
C=C(C(=O)c1cc(C)cc(C)c1O)c1ccccc1	83 to 84
N#Cc1c(N2CCCCC2)cc(-c2cccs2)c2c1-c1ccccc1C2	152 to 154
CC=CC1=NC(=Cc2cccs2)C(=O)O1	174 to 176
CC(C)N(C(C)C)S(=O)(=O)NC(=O)c1nsc2ccc(-n3c(=O)cc(C(F)(F)F)n(C)c3=O)cc12	214
O=C1OC(=O)c2c(Cl)cc(Cl)cc21	90 to 94
COC(=O)c1cc(CC#N)cc(Cc2nc3c(F)c(F)cc(F)c3s2)c1	130 to 132
CCOC(=O)C1OC1C(=O)N(C)C1CCCCC1 (configuration not stated)	52 to 55
Cc1nc(-c2ccccc2C(F)(F)F)c(CC(Cl)C(=O)O)o1 (configuration not stated)	158 to 159
COc1cccc2c1OC(C(C)C)C2=O (configuration not stated)	46 to 47
CN1Cc2c(-c3nc(CN4C(=O)c5ccccc5C4=O)no3)ncn2-c2ccccc2C1=O	239 to 240
O=c1[nH]c2cc(Cl)cc(Cl)c2oc1=O	312
CC(C)C[C@H](NC(=O)OCc1ccccc1)C(=O)N[C@@H](Cc1ccccc1)C(=O)CN(C)C	81 to 82
CS(=O)(=O)c1nccn1CC(=O)O	218 to 219
CCOC(=O)c1cn(-c2cc(OC)c(F)cc2[N+](=O)[O-])c2c(Cl)c(F)c(F)cc2c1=O	244 to 248
C=CCc1cc2c(C)cc(=O)oc2c(C)c1O	166 to 167
Cc1c(Cl)c(C(=O)O)cc(Cl)c1C(=O)O	169 to 171
COc1ccc(/C=C(\C)C(=O)O)cc1	178 to 182
COc1ccc(Nc2nc(Nc3cc4c(cc3OC)CCN(CC(=O)N(C)C)CC4)ncc2Cl)c(S(=O)(=O)C(C)C)c1	68 to 79
O=C(O)CN1C(=O)C(=Cc2c[nH]c3ccccc23)SC1=S	> 300
CC(C)CCn1cc([N+](=O)[O-])cc1C(=O)Nc1cc(C(=O)NCCCN2CCOCC2)n(C)c1	155 to 158
CC(C)c1nc(COCc2ccccc2)n(CF)c1Sc1cc(Cl)cc(Cl)c1	115 to 117
O=C1N(Cc2ccccn2)c2ccccc2C12COc1cc3c(c(-c4ccoc4)c12)CCO3 (configuration not stated)	195 to 197
Cc1nccnc1NCCN1CCC(NC(=O)c2cc(Cl)c(N)c3c2OC(C)(C)C3)CC1	163

Reference: a melting point compilation (Tetko et al.; mined from patent text by program, amines drawn as free bases though some values may be those of a salt)
